From paper PMC3914206

Key:
[1] = biological target: T1, panel of 442 kinases (Homo sapiens, UniProt P21709); type: binding; conditions: Compound Concentration 10 µM
T1 construct: purchased KINOMEscan
T1 sequence (P21709 26-976): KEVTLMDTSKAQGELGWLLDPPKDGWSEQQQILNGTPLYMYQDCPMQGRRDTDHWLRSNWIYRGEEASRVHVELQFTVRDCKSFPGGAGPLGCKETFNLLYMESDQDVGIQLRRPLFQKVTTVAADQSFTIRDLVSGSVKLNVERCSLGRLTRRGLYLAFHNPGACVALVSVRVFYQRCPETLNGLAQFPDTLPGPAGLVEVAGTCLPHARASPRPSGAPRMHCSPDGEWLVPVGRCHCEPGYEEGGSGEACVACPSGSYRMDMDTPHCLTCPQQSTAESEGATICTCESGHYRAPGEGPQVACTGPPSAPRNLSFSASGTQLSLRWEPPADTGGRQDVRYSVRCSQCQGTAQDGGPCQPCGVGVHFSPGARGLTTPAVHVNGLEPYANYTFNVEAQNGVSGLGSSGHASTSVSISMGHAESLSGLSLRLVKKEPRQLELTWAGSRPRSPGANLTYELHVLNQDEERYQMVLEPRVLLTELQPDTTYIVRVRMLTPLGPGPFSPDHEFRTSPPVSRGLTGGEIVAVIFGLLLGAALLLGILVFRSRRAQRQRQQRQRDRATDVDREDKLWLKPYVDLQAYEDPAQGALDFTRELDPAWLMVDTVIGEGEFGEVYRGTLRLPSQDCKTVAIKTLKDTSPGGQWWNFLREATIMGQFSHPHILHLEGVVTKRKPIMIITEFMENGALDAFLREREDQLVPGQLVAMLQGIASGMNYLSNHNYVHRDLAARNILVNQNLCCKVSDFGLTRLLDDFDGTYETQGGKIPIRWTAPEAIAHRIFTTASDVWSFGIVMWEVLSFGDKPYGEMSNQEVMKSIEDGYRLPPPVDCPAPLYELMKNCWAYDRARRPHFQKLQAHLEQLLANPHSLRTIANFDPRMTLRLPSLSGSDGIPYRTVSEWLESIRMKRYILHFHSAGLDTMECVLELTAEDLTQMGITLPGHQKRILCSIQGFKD
Excerpt: (§1) We assessed the selectivity of members of this scaffold using the KINOMEscan methodology across a near comprehensive panel of 442 kinases [[18,27]].

[2] = biological target: T2, panel of 442 kinases (Homo sapiens, UniProt P53778); type: binding; conditions: Compound Concentration 10 µM
T2 construct: purchased KINOMEscan
T2 sequence (P53778 1-367): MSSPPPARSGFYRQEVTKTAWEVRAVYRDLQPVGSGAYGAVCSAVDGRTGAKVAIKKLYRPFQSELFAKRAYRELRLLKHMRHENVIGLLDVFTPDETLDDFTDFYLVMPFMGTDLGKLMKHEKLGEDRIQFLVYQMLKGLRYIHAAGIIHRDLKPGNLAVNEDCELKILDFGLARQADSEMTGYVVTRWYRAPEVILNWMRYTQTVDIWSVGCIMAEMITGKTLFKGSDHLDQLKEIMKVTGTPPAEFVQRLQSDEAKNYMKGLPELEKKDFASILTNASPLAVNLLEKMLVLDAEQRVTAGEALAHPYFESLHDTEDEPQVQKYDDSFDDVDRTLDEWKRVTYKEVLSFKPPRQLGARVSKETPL
Excerpt: as §1

Row | SMILES | KINOMEscan: EPHA1 [1] | KINOMEscan: p38-gamma [2]
1 | COc1cc(C(=O)N2CCC(N3CCN(C)CC3)CC2)ccc1Nc1ncc2c(n1)N(C)c1ccccc1C(=O)N2C [15 (LRRK2-IN-1)] | 100 | 76
2 | COc1cc(C(=O)N2CCC(N3CCN(C)CC3)CC2)ccc1Nc1ncc2c(n1)N(C1CCCC1)c1ccccc1C(=O)N2C [Compound 25, 11-cyclopentyl-2-((2-methoxy-4-(4-(4-methylpiperazin-1-yl)piperidine-1-carbonyl)phenyl)amino)-5-methyl-5H-benzo[e]pyrimido[5,4-b][1,4]diazepin-6(11H)-one] | 100 | 88
3 | CCOc1cc(C(=O)N2CCC(N3CCN(C)CC3)CC2)ccc1Nc1ncc2c(n1)N(C1CCCC1)c1ccccc1C(=O)N2C [Compound 26] | 98 | 32
